Experimental data taken from the NIST ThermoML archive (doi:10.1016/j.jct.2015.03.019).
Values joined by “and” are separate entries in the source; they are usually repeats but may differ in a detail not shown here. Equal values may be shown once. Numbers after ± are expanded uncertainties.

Experiment: molar heat capacity at constant pressure
Settings: 101.33 kPa, Small (less than 1 g) adiabatic calorimetry

CC(C)(C)c1ccc(Oc2ccccc2)cc1 [4-tert-butylphenyl phenyl ether]
molar heat capacity at constant pressure
Settings	Crystal	Liquid
224.34 K	233.39 ± 1.2 J/K/mol	–
225.69 K	234.72 ± 1.2 J/K/mol	–
227.04 K	235.72 ± 1.2 J/K/mol	–
228.4 K	237.05 ± 1.2 J/K/mol	–
229.74 K	238.29 ± 1.2 J/K/mol	–
230 K	238.71 ± 1 J/K/mol	–
231.18 K	240.12 ± 1.2 J/K/mol	–
236.59 K	245.11 ± 1.2 J/K/mol	–
237.93 K	246.03 ± 1.3 J/K/mol	–
239.28 K	247.27 ± 1.3 J/K/mol	–
240 K	247.77 ± 1 J/K/mol	–
240.62 K	248.44 ± 1.3 J/K/mol	–
241.97 K	249.68 ± 1.3 J/K/mol	–
243.31 K	250.76 ± 1.3 J/K/mol	–
244.65 K	252.18 ± 1.3 J/K/mol	–
248.66 K	256.25 ± 1.3 J/K/mol	–
250 K	257.67 ± 1.3 J/K/mol and 257.5 ± 1 J/K/mol	–
251.33 K	258.91 ± 1.3 J/K/mol	–
252.75 K	260.49 ± 1.3 J/K/mol	–
254.09 K	261.41 ± 1.3 J/K/mol	–
255.42 K	262.82 ± 1.4 J/K/mol	–
256.75 K	264.07 ± 1.4 J/K/mol	–
260 K	267.48 ± 1 J/K/mol	–
260.74 K	268.39 ± 1.4 J/K/mol	–
262.06 K	269.56 ± 1.4 J/K/mol	–
263.38 K	270.8 ± 1.4 J/K/mol	–
264.71 K	272.05 ± 1.4 J/K/mol	–
266.03 K	273.38 ± 1.4 J/K/mol	–
267.35 K	274.54 ± 1.4 J/K/mol	–
268.67 K	275.96 ± 1.4 J/K/mol	–
269.98 K	276.87 ± 1.4 J/K/mol	–
270 K	277.2 ± 1.1 J/K/mol	–
271.3 K	278.45 ± 1.4 J/K/mol	–
272.62 K	279.7 ± 1.5 J/K/mol	–
276.62 K	283.69 ± 1.5 J/K/mol	–
277.92 K	285.02 ± 1.5 J/K/mol	–
279.22 K	286.27 ± 1.5 J/K/mol	–
280 K	287.1 ± 1.1 J/K/mol	–
280.53 K	287.51 ± 1.5 J/K/mol	–
281.83 K	289.01 ± 1.5 J/K/mol	–
283.13 K	290.09 ± 1.5 J/K/mol	–
284.43 K	291.09 ± 1.5 J/K/mol	–
288.3 K	295.16 ± 1.5 J/K/mol	–
289.59 K	296.49 ± 1.6 J/K/mol	–
290 K	296.41 ± 1.2 J/K/mol	–
290.87 K	297.33 ± 1.6 J/K/mol	–
292.15 K	298.24 ± 1.6 J/K/mol	–
293.43 K	298.91 ± 1.6 J/K/mol	–
294.71 K	299.82 ± 1.6 J/K/mol	–
298.15 K	302.98 ± 1.2 J/K/mol	–
299.77 K	304.06 ± 1.6 J/K/mol	–
300 K	304.48 ± 1.2 J/K/mol	–
301.26 K	305.47 ± 1.6 J/K/mol	–
302.92 K	307.05 ± 1.6 J/K/mol	–
304.58 K	308.88 ± 1.6 J/K/mol	–
306.25 K	310.3 ± 1.6 J/K/mol	–
309.6 K	312.87 ± 1.6 J/K/mol	–
310 K	313.21 ± 1.2 J/K/mol	–
311.29 K	315.62 ± 1.7 J/K/mol	–
314.7 K	320.94 ± 1.7 J/K/mol	–
316.41 K	322.19 ± 1.7 J/K/mol	–
318.13 K	325.68 ± 1.7 J/K/mol	–
319.86 K	330.17 ± 1.7 J/K/mol	–
320 K	321.69 ± 1.2 J/K/mol	–
321.61 K	331 ± 1.7 J/K/mol	–
327.84 K	328.26 ± 1.2 J/K/mol	384.38 ± 1.4 J/K/mol
330 K	–	386.29 ± 1.4 J/K/mol
334.3 K	–	391.36 ± 2 J/K/mol
340 K	–	394.94 ± 1.5 J/K/mol
340.65 K	–	394.52 ± 2 J/K/mol
347.01 K	–	398.93 ± 2.1 J/K/mol
350 K	–	403.25 ± 1.7 J/K/mol
351.17 K	–	405 ± 2.1 J/K/mol
353.12 K	–	407.24 ± 2.1 J/K/mol
355.08 K	–	408.24 ± 2.1 J/K/mol
357.06 K	–	409.82 ± 2.1 J/K/mol
359.07 K	–	410.65 ± 2.1 J/K/mol
360 K	–	411.57 ± 1.7 J/K/mol
361.08 K	–	411.57 ± 2.1 J/K/mol
363.12 K	–	412.65 ± 2.1 J/K/mol
365.18 K	–	413.4 ± 2.1 J/K/mol
367.25 K	–	414.06 ± 2.1 J/K/mol
369.35 K	–	414.89 ± 2.1 J/K/mol
370 K	–	414.89 ± 1.7 J/K/mol
371.48 K	–	415.81 ± 2.2 J/K/mol
